Measurements published in patent US20230000840A1, “THERAPEUTIC AGENTS AND PROPHYLACTIC AGENTS FOR FUNCTIONAL GASTROINTESTINAL DISORDERS AND XEROSTOMIA” (NIPPON SHINYAKU CO., LTD., priority 2019, published 2023).

How the values were obtained:
ileum = experiment: Magnus test: carbachol-induced contraction of isolated rat ileum; details: test compound 10 μM, then carbachol 50 nM, 100% = carbachol 1000 nM, 0% = DMSO + carbachol 50 nM, average ± standard error, read-out: Enhancement ratio P of the contraction force
Procedure: 9- to 15-week-aged SD female rats (Japan SLC, Inc.) were exsanguinated to death by amputation of carotid artery under isoflurane anesthesia. Then, the ileum was removed from each rat, and cut to a length of 2 cm while excising the mesentery and connective tissue, to prepare an intestinal sample. In a Magnus tank, this sample was immersed and suspended in 20 mL of a Krebs solution at 37° C. (118 mM NaCl, 4.7 mM KCl, 2.5 mM CaCl2, 1.2 mM MgSO4, 1.2 mM KH2PO4, 11 mM D-glucose, 20 mM NaHCO3) aerated with a mixed gas of 95% O2 and 5% CO2. Then, a load of 1 g was applied to the sample to stabilize the tension.
One end of the sample was connected to an isotonic transducer (IT-10, Medical Agent), and tension (contraction force) data was imported to a personal computer via Power Lab (registered trademark) (A&D Instruments Limited). Carbachol (Carbamylcholine Chloride, Cat. No. 036-09841, manufactured by FUJIFILM Wako Pure Chemical Industries, Ltd.) was added to the Krebs solution in the Magnus tank such that the final concentration thereof was 1000 nM, and contraction of the sample was checked. A contraction force Tb of the sample at this time was defined as 100%. Then, the Magnus tank was washed with a Krebs solution three times to wash away carbachol, and the Magnus tank was finally filled with 20 mL of a Krebs solution.
Next, dimethyl sulfoxide (DMSO, Cat. No. 13445-74, manufactured by NACALAI TESQUE, INC.) was added to the Krebs solution in the Magnus tank, then carbachol was added to the Krebs solution in the Magnus tank such that the final concentration thereof was 50 nM, and contraction of the sample was checked. A contraction force Ta of the sample at this time was defined as 0%. Then, the Magnus tank was washed with a Krebs solution three times to wash away carbachol and DMSO, and the Magnus tank was finally filled with 20 mL of a Krebs solution. Next, a test compound dissolved in DMSO was added to the Krebs solution in the Magnus tank such that the final concentration thereof was 10 μM, then carbachol was added to the Krebs solution in the Magnus tank such that the final concentration thereof was 50 nM, and contraction of the sample was checked.
As described above, the contraction force Tb of the sample when carbachol was added at a final concentration of 1000 nM was defined as 100%, and the contraction force Ta of the sample when carbachol was added at a final concentration of 50 nM under the condition that DMSO was added first instead of the test compound was defined as 0%. The contraction force of the sample when carbachol was added at a final concentration of 50 nM under the condition that the test compound was added first at a final concentration of 10 μM was denoted by Tc, and an enhancement ratio P (unit: %) of the contraction force by the test compound was calculated according to the following equation (2). The increase in contraction force by the test compound was evaluated on the basis of the enhancement ratio P. The number of cases in each addition group was 3 to 7.
P=100×(Tc−Ta)/(Tb−Ta) (2)

anesthetized mice = experiment: Measurement of secreted saliva amount in anesthetized mice; format: in vivo, mouse; details: for Amount of saliva secreted: urethane-anesthetized male ICR mice, 10 mg/kg intravenous, cotton balls weighed after 30 minutes, average ± standard error
Procedure: 8-week-aged male ICR mice (Japan SLC, Inc.) were anesthetized with urethane (1650 mg/kg, intraperitoneal administration). After about 1 hour, a test compound or a vehicle (physiological saline containing 10% DMSO (OTSUKA NORMAL SALINE, manufactured by Otsuka Pharmaceutical Factory, Inc.)) was intravenously administered at 10 mg/kg, and immediately after that, one or two absorbent cotton wool balls ([…]) (Roller Cotton (cotton ball) SS, manufactured by Nichiei Co., Ltd.) were inserted into the mouth. The difference between the weight of the absorbent cotton balls after 30 minutes from insertion and the weight of the absorbent cotton balls before insertion was defined as an amount of saliva secreted. At this time, the test compound was dissolved in DMSO and then diluted 10-fold with physiological saline. The administration volumes of the test compound and the vehicle were each set to 5 mL/kg. The experiment was carried out in three parts. The number of cases in each administration group was 3-4.

SMILES | activation at 10 µM (ileum) [%] | Amount of saliva secreted (anesthetized mice) [mg] | Salivation promoting effect (anesthetized mice; urethane-anesthetized mice, dose not given)
CCOc1cc(-c2cc(N(C)CC3(COC)CCCC3)c3[nH]c(-c4cnc(N5CCC(C(=O)O)CC5)cn4)nc3n2)cc(C(F)(F)F)n1 [Example 9, 1-(5-{5-[2-Ethoxy-6-(trifluoromethyl)pyridin-4-yl]-7-[{[1-(methoxymethyl)cyclopentyl]methyl}(methyl)amino]-1H-imidazo[4,5-b]pyridin-2-yl}pyrazin-2-yl)piperidine-4-carboxylic acid] | 36.9 ± 6.43 | 34.73 ± 11.39 | 
CCOCC1(CN(C)c2cc(-c3cnc(C4CC4)c(C(F)(F)F)c3)nc3nc(-c4cnc(N5CCN(CCC(=O)[O-])C[C@H]5C)cn4)[nH]c23)CCCC1.[Na+] [Example 13, sodium 3-[(3R)-4-(5-{5-[6-cyclopropyl-5-(trifluoromethyl)pyridin-3-yl]-7-[{[1-(ethoxymethyl)cyclopentyl]methyl}(methyl)amino]-1H-imidazo [4,5-b]pyridin-2-yl}pyrazin-2-yl)-3-methylpiperazin-1-yl]propanoate] | 17.7 ± 12.7 | 214.40 ± 51.06 | 
COCC1(CN(C)c2cc(-c3cnc(C4CC4)c(C(F)(F)F)c3)nc3nc(-c4cnc(N5CCN(CCC(=O)O)CC5)cn4)[nH]c23)CCCCC1 [Example 10] | 19.3 ± 5.52 | 329.83 ± 49.36 | 
COCC1(CN(C)c2cc(-c3cnc(C4CC4)c(C(F)(F)F)c3)nc3nc(-c4cnc(N5CCN(CCC(=O)[O-])C[C@H]5C)cn4)[nH]c23)CCCC1.[Na+] [Example 15, Sodium 3-[(3R)-4-(5-{5-[6-cyclopropyl-5-(trifluoromethyl)pyridin-3-yl]-7-[{[1-(methoxymethyl)cyclopentyl]methyl}(methyl)amino]-1H-imidazo[4,5-b]pyridin-2-yl}pyrazin-2-yl)-3-methylpiperazin-1-yl]propanoate] | 79.3 ± 12.2 | 304.98 ± 58.25 | 
COCC1(CN(C)c2cc(-c3cnc(C4CC4)c(C(F)(F)F)c3)nc3nc(-c4ccc(OC5CCN(CC(=O)O)CC5)cc4F)[nH]c23)CCCC1 [Example 11, [4-(4-{5-[6-Cyclopropyl-5-(trifluoromethyl)pyridin-3-yl]-7-[{[1-(methoxymethyl)cyclopentyl]methyl}(methyl)amino]-1H-imidazo[4,5-b]pyridin-2-yl}-3-fluorophenoxy)piperidin-1-yl]acetic acid] | 30.1 ± 3.79 | 51.85 ± 7.37 | 
CCOCC1(CN(C)c2cc(-c3cnc(C4CC4)c(C(F)(F)F)c3)nc3nc(-c4cnc(N5CCC(C(=O)O)CC5)cn4)[nH]c23)CCCC1 [Example 8, 1-(5-{5-[6-Cyclopropyl-5-(trifluoromethyl)pyridin-3-yl]-7-[{[1-(ethoxymethyl)cyclopentyl]methyl}(methyl)amino]-1H-imidazo[4,5-b]pyridin-2-yl}pyrazin-2-yl)piperidine-4-carboxylic acid] | 12.4 ± 5.31 | 49.13 ± 11.95 | 
CCOc1ncc(-c2cc(N(C)CC3(COC)CCC3)c3[nH]c(-c4cnc(N5CCC(C(=O)O)CC5)cn4)nc3n2)cc1C(F)(F)F [Example 3, 1-(5-{5-[6-Ethoxy-5-(trifluoromethyl)pyridin-3-yl]-7-[{[1-(methoxymethyl)cyclobutyl]methyl}(methyl)amino]-1H-imidazo[4,5-b]pyridin-2-yl}pyrazin-2-yl)piperidine-4-carboxylic acid] | 57.3 ± 7.24 | 27.23 ± 5.94 | 
CCOc1ncc(-c2cc(N(C)CC3(COC)CCCC3)c3[nH]c(-c4ccc(N5CCC(C(=O)O)CC5)cc4F)nc3n2)cc1C(F)(F)F [Example 6, 1-(4-{5-[6-Ethoxy-5-(trifluoromethyl)pyridin-3-yl]-7-[{[1-(methoxymethyl)cyclopentyl]methyl}(methyl)amino]-1H-imidazo[4,5-b]pyridin-2-yl}-3-fluorophenyl)piperidine-4-carboxylic acid] | 26.7 ± 5.04 | 11.37 ± 2.87 | 
COC[C@@H]1CN(c2cnc(-c3nc4nc(-c5cnc(C6CC6)c(C(F)(F)F)c5)cc(N(C)CC5(COC)CCCCC5)c4[nH]3)cn2)CCN1CCC(=O)O [Example 12, 3-[(2S)-4-(5-{5-[6-Cyclopropyl-5-(trifluoromethyl)pyridin-3-yl]-7-[{[1-(methoxymethyl)cyclohexyl]methyl}(methyl)amino]-1H-imidazo[4,5-b]pyridin-2-yl}pyrazin-2-yl)-2-(methoxymethyl)piperazin-1-yl]propanoic acid] | 49.3 ± 11 | 131.75 ± 28.63 | 
CCOc1cc(-c2cc(N(C)CC(C)(C)COC)c3[nH]c(-c4cnc(N5CCC(C(=O)O)CC5)cn4)nc3n2)cc(C(F)(F)F)n1 [Example 7, 1-(5-{5-[2-Ethoxy-6-(trifluoromethyl)pyridin-4-yl]-7-[(3-methoxy-2,2-dimethylpropyl)(methyl)amino]-1H-imidazo[4,5-b]pyridin-2-yl}pyrazin-2-yl)piperidine-4-carboxylic acid] | 25.8 ± 6.38 | 73.40 ± 28.54 | 
COCC1(CN(C)c2cc(-c3cc(C4CC4)nc(C(F)(F)F)c3)nc3nc(-c4cnc(N5CCN(CCC(=O)[O-])C[C@H]5C)cn4)[nH]c23)CCCCC1.[Na+] [Example 14, Sodium 3-[(3R)-4-(5-{5-[2-cyclopropyl-6-(trifluoromethyl)pyridin-4-yl]-7-[{[1-(methoxymethyl)cyclohexyl]methyl}(methyl)amino]-1H-imidazo[4,5-b]pyridin-2-yl}pyrazin-2-yl)-3-methylpiperazin-1-yl]propanoate] | 65.1 ± 15 | 142.70 ± 23.51 | 
COCC1(CN(C)c2cc(-c3cc(F)cc(C(F)(F)F)c3)nc3nc(-c4cnc(N5CCN(CC(=O)O)CC5)cn4)[nH]c23)CCC1 [Example 1, [4-(5-{5-[3-Fluoro-5-(trifluoromethyl)phenyl]-7-[{[1-(methoxymethyl)cyclobutyl]methyl}(methyl)amino]-1H-imidazo[4,5-b]pyridin-2-yl}pyrazin-2-yl)piperazin-1-yl]acetic acid] | 30.4 ± 8.34 | 9.63 ± 2.90 | 
COCC1(CN(C)c2cc(-c3cc(C4CC4)nc(C(F)(F)F)c3)nc3nc(-c4cnc(N5CCC(OCC(=O)O)CC5)cn4)[nH]c23)CCCC1 [Example 5, {[1-(5-{5-[2-Cyclopropyl-6-(trifluoromethyl)pyridin-4-yl]-7-[{[1-(methoxymethyl)cyclopentyl]methyl}(methyl)amino]-1H-imidazo[4,5-b]pyridin-2-yl}pyrazin-2-yl)piperidin-4-yl]oxy}acetic acid] | 33.5 ± 3.39 | 66.30 ± 15.32 | 
CCOc1cc(-c2cc(N(C)CC3(COC)CCC3)c3[nH]c(-c4cnc(N5CCC(C(=O)O)CC5)cn4)nc3n2)cc(C(F)(F)F)n1.Cl.Cl [Example 4, 1-(5-{5-[2-Ethoxy-6-(trifluoromethyl)pyridin-4-yl]-7-[{[1-(methoxymethyl)cyclobutyl]methyl}(methyl)amino]-1H-imidazo[4,5-b]pyridin-2-yl}pyrazin-2-yl)piperidine-4-carboxylic acid dihydrochloride] | 59.3 ± 7.17 | 77.35 ± 16.66 | 
CC[C@@H]1C(=O)OC[C@@H]1Cc1cncn1C [pilocarpine, reference compound] |  |  | exhibited a salivation promoting effect
